In patent US20150018418A1, “COMPOSITIONS AND METHODS FOR PROLONGING PREGNANCY” (priority 2013, published 2015):

Columns and labels:
[1] = Serum half-life and clearance of gabapentin in humans; assay type: in vivo; settings: expected from the serum half-life
Text: The patient was discharged.

[2] = test system: pregnant human female in PTL (uterine contractions); settings: Example 1
Procedure: A pregnant person, at 29.5 weeks gestation, presented to the hospital in PTL during their first pregnancy. […] The patient's parent experienced PTL during one of their pregnancies, leading to premature birth of the patient at 30 weeks gestation. The patient's sibling also had experienced PTL with one of their pregnancies resulting in premature birth at 36 weeks gestation.
The patient was diagnosed with PTL and started on nifedipine 20 mg by mouth every 6 hours for tocolysis and magnesium sulfate 6 g as an intravenous infusion over 30 minutes followed by 2 g per hour for the next 12 hours for fetal neuroprotection. […] A course of steroids were also given for fetal lung maturation.
The patient then enrolled in a study conducted in advancement of the present disclosure and began therapy with gabapentin 300 mg, 3×/day (900 mg/day total). […] The following day the patient was discharged home only on gabapentin 300 mg, 3×/day and their previous outpatient dose of atenolol at 50 mg a day. […] They were instructed to increased their gabapentin dose to 600 mg, 3×/day.
Gabapentin was not administered while the patient was in the hospital. […] The patient was discharged.
Such contractions are the hallmark of preterm labor, which is known to result in premature birth in 60% of cases.

[3] = test system: pregnant human in PTL (uterine contractions, uterine pressure); test: Example 2: gabapentin maintenance therapy in a patient with preterm labor (case report); assay type: in vivo
Procedure: The cervix was dilated at 3.5-4 cm and regular uterine contractions were occurring at 11/hour. […] The uterine contractions slowly diminished and were completely resolved 14 hours after tocolysis was initiated.
The cervix was still 3.5-4 cm dilated at the time of enrollment. By the evening of the next day, the subject began feeling “uncomfortable” with a “pressure” feeling in their uterus. They were instructed the next day to increase their bedtime gabapentin dose to 600 mg and to continue 300 mg in the morning and in the afternoon. […] Two days later the subject reported feeling some recurrent uterine pressure especially noticeable for the hour before each gabapentin dose was taken. Gabapentin was increased to 600 mg, 3×/day and by the following day all of the pressure symptoms had resolved. The subject remained asymptomatic.
They continued on gabapentin 600 mg, 3×/day and remained asymptomatic. Three days later the subject noticed that their “water broke”. They were admitted to the hospital and confirmed to have preterm premature rupture of membranes (PPROM) with cervix still dilated to 4 cm. Gabapentin was continued at 600 mg, 3×/day. The subject remained asymptomatic throughout the next day; however, on the morning of the following day the subject began having regular uterine contractions about every 3-5 minutes and their cervix had now dilated to 7cm.
This discovery of gabapentin maintenance therapy resolving recurrent uterine contractions and pressure symptoms leading to a prolongation of pregnancy and preserving fetal survival is accordingly highly valuable to the public. Its value can be recognized at least in part because uterine contractions are an essential component of PTL, which precedes 40-50% of premature births (<37 weeks gestation) and as described above, premature birth occurs in 11.5% of all live births in the US, is the number one cause of neonatal mortality, and is responsible for half of the long-term neurological impairments in children. […]

[4] = test system: preterm labor / premature birth; settings: cited from earlier work
[5] = nifedipine 20 mg by mouth every 6 hours, with i.v. magnesium sulfate for fetal neuroprotection

With `NCC1(CC(=O)O)CCCCC1` [gabapentin, (1-aminomethyl)cyclohexaneacetic acid] the “time to be fully cleared after discontinuation” value [1] was “about 30 hours”, the “recurrent uterine cramping and uterine contraction feelings” value ([2]; dose increased from 300 mg to 600 mg 3x/day, after the second 600 mg dose) was “fully resolved” and the “side effects after the first dose” value ([2]; gabapentin 300 mg 3x/day, resolved that same day) was “mild dizziness”. For the same compound, the “side effects from the higher dose” value ([2]; gabapentin 600 mg 3x/day) was “did not experience any side effects”, the “time remained stable without any uterine cramping” value ([2]; gabapentin 600 mg 3x/day) was 16 days and the “outcome after discontinuation of maintenance therapy” value ([2]; gabapentin discontinued for 8 days) was “associated with the IUFD”. The “uncomfortable pressure feeling in uterus” value ([3]; bedtime dose increased to 600 mg, 300 mg morning and afternoon, following morning) was “fully resolved”, the “recurrent uterine pressure symptoms” value ([3]; gabapentin increased to 600 mg 3x/day, by the following day) was “resolved” and the “use during pregnancy and premature birth” value ([4]; Fujii H, et al. Neurology 2013) was “associated with an increase in premature birth”.

In the case of `O=S(=O)([O-])[O-].[Mg+2]` [magnesium sulfate], the “time to resolution of all uterine contractions” value ([2]; recurrent contractions, intravenous magnesium sulfate infusion 2 g/hour, gabapentin not administered) is reported as no more than 5 h.

For `COC(=O)C1=C(C)NC(C)=C(C(=O)OC)C1c1ccccc1[N+](=O)[O-]` [nifedipine], the “time to complete resolution of uterine contractions after tocolysis was initiated” value [2, 5] was 12 h and the “time to complete resolution of uterine contractions after tocolysis was initiated” value [3, 5] was 14 h.

For `CC(C)(C)NCC(O)c1cc(O)cc(O)c1` (stereo not shown) [terbutaline], the “maintenance tocolysis for prolonging pregnancy” value ([4]; patients with recent or resolved PTL, versus placebo) is given as “no more effective than maintenance placebo therapy”.
